{
  "source": "patent US20130184294A1",
  "about": "“Pyrimidones for Treatment of Potassium Channel Related Diseases” (Pfizer Inc., priority 2010, published 2013)",
  "data": [
    {"target": "T1, Kv7.2/7.3 channels (Homo sapiens, UniProt O43525+O43526)", "T1 construct": "The entire construct for Kv7.2 and Kv7.3 was subcloned into the pIRESneo3 and pIREShygro3 expression vectors; expressed in transfected cells", "experiment": "Kv7.2/3 channel opening activity, IonWorks planar patch-clamp of K-current at 0 mV", "assay_type": "cell-based", "details": "CHO-K1 cells expressing human Kv7.2/7.3; IonWorks Quattro, step from -80 mV to 0 mV, 7-point concentration curves", "from_the_text": "Biological Assay for Kv7.2/3 Channel Opening Activity\nHuman Kv7.2 and Kv7.3 clones were obtained from GeneDynamics (Eugene, Oreg.). Both human Kv7.2/pIRESneo3 and human Kv7.3/pIREShygro3 expression vectors were constructed using a combination of fragments amplified from a human hippocampus library (extending from a NheI site near the 5′ end through the stop codon) and synthetic oligonucleotides (extending from the start codon to the BamHI site). The entire construct for Kv7.2 and Kv7.3 was subcloned into the pIRESneo3 and pIREShygro3 expression vectors (Clonetech, Mountain View, Calif.), respectively, using NheI/BamHI sites introduced on either side of the start and stop codons. The construct was sequenced in its entirety to make sure that no mutations were introduced during the amplification and cloning process. Adapted from Wickendon, A D et al., Mol Pharmacol 58(3):591-600, 2000.\nChinese hamster ovary (CHO-K1) cells were transfected with human-Kv7.2 in a pIRESneo3 plasmid DNA vector (Clonetech, Mountain View, Calif.) and the h-Kv7.3 subunit in pIREShygro3 plasmid DNA vector using Lipofectamine-2000™ reagent (InVitrogen, San Diego, Calif.), according to the manufacturers instructions. Cells stably expressing the human Kv7.2 and Kv7.3 constructs were identified by their resistance to 400 ug/ml, geneticin (Gibco #10131-027) and 400 ug/ml, hygromycin-B (Invitrogen #10687-010). Clones were screened for functional expression using the whole-cell, voltage-clamp technique.\nTo determine if compounds can enhance voltage-dependent K-current in Kv7.2/7.3 channel containing CHO-K1 cells. Planar patch-clamp is used on IonWorks to functionally determine percent enhancement of Kv7.2/7.3-current at 0 mV (compared to retigabine) and potency (EC50) of compounds. Intrinsic activity and/or potency may be important in determining in vivo pharmacological efficacy of the compounds.\nSerial dilutions were made in DMSO on an Apricot Personal Pipettor. Compounds were then diluted in external buffer on a 384 well assay plate (final DMSO concentration=0.3%).\nCells used in this assay were CHO-K1 expressing Kv7.2/7.3 channels. Cells were maintained in growth media containing: F-12 (Gibco #11765-054), 10% FBS (Invitrogen 16140-071), 1:100 Glutamax (Gibco #35050-061), 1:100 Penicillin/streptomycin (Gibco #15140-122), 400 ug/ml Geneticin (Gibco #10131-027), 400 ug/ml Hygromycin-B (Invitrogen #10687-010). Cells were grown in T-150 flasks to a confluence of approx. 80%. External recording buffer contained (in mM): NaCl (137), KCl (4), MgCl2 (1), CaCl2 (1.8), HEPES (10), and glucose (10), pH was adjusted to 7.3 with NaOH and osmolarity was adjusted to 300-305 mOsM with sucrose, if necessary. Internal buffer contained (in mM): Kgluconate (120), KCl (20), NaCl (5), MgCl2 (1), CaCl2 (2), HEPES (10), KF (2), and Na2ATP (2). Na2ATP was added to internal buffer right before use and pH was adjusted to 7.2 with KOH. Osmolarity of internal buffer was adjusted to 290-295 mOsM.\nCells were washed 1× with Ca/Mg free PBS and then removed from the plates with a 50:50 mixture of versene (Gibco 15040): 0.25% trypsin-EDTA (Gibco 25200) (4 min), triturated, centrifuged at ˜1000 rpm for 5 min, and resuspended at ˜2.5 million cells/ml in external buffer for recording on IonWorks. Potassium current measurements were made using an IonWorks Quattro instrument (MDS Corp.) using PatchPlate PPC substrates with 64 apertures per well. IonWorks calculated leak current was digitally subtracted from the total current acquired. Potassium current was elicited by stepping from −80 mV to 0 mV (2 sec) was measured in the absence and presence of increasing concentrations (½ log) of unknown compound (7-point concentration curves). Retigabine was run as a positive control and comparator on each PatchPlate PPC. Maximum increase in K current was determined by subtracting the current elicited in external buffer alone wells from the current elicited in wells with compound treatment (both at 0 mV). […]", "units": {"EC50": "nM"}, "values": [
      {"smiles": "Cc1cccn2c(=O)c(NC(=O)CC(C)(C)C)c(NC(C)C3CC3)nc12", "note": "(single isomer, unassigned) [Example 2a, N-{2-[(1-Cyclopropylethyl)amino]-9-methyl-4-oxo-4H-pyrido[1,2-a]pyrimidin-3-yl}-3,3-dimethylbutanamide, (+)-enantiomer]", "EC50": 227},
      {"smiles": "Cc1cccn2c(=O)c(NC(=O)CC(C)(C)C)c(NC(C)C3CC3)nc12", "note": "(single isomer, unassigned) [Example 2b, N-{2-[(1-Cyclopropylethyl)amino]-9-methyl-4-oxo-4H-pyrido[1,2-a]pyrimidin-3-yl}-3,3-dimethylbutanamide, (−)-enantiomer]", "EC50": 128},
      {"smiles": "CC(C)(C)CC(=O)Nc1c(C2CC2)nc2n(c1=O)CCCC2C(F)(F)F", "note": "(single isomer, unassigned) [Example 5a, N-[2-Cyclopropyl-4-oxo-9-(trifluoromethyl)-6,7,8,9-tetrahydro-4H-pyrido[1,2-a]pyrimidin-3-yl]-3,3-dimethylbutanamide, (−)-enantiomer]", "EC50": 1240},
      {"smiles": "CC(C)(C)CC(=O)Nc1c(C2CC2)nc2n(c1=O)CCCC2C(F)(F)F", "note": "(single isomer, unassigned) [Example 5b, N-[2-Cyclopropyl-4-oxo-9-(trifluoromethyl)-6,7,8,9-tetrahydro-4H-pyrido[1,2-a]pyrimidin-3-yl]-3,3-dimethylbutanamide, (+)-enantiomer]", "EC50": 298},
      {"smiles": "CC(C)Nc1nc2n(c(=O)c1NC(=O)CC(C)(C)C)CCCC2C(F)(F)F", "note": "(single isomer, unassigned) [Example 8a, 3,3-Dimethyl-N-[4-oxo-2-(propan-2-ylamino)-9-(trifluoromethyl)-6,7,8,9-tetrahydro-4H-pyrido[1,2-a]pyrimidin-3-yl]butanamide, (−) enantiomer]", "EC50": 382},
      {"smiles": "CC(C)Nc1nc2n(c(=O)c1NC(=O)CC(C)(C)C)CCCC2C(F)(F)F", "note": "(single isomer, unassigned) [Example 8b, 3,3-Dimethyl-N-[4-oxo-2-(propan-2-ylamino)-9-(trifluoromethyl)-6,7,8,9-tetrahydro-4H-pyrido[1,2-a]pyrimidin-3-yl]butanamide, (+) enantiomer]", "EC50": 412},
      {"smiles": "CC[C@@H](C)Nc1nc2n(c(=O)c1NC(=O)CC(C)(C)C)CCCC2C", "note": "(single isomer, unassigned; diastereomer 1) [Example 11a]", "EC50": 307},
      {"smiles": "CC[C@@H](C)Nc1nc2n(c(=O)c1NC(=O)CC(C)(C)C)CCCC2C", "note": "(single isomer, unassigned; diastereomer 2) [Example 11b]", "EC50": 942},
      {"smiles": "CC[C@@H](C)Nc1nc2c(C)cccn2c(=O)c1NC(=O)CC(C)(C)C", "note": "[Example 1, N-{2-[(2R)-Butan-2-ylamino]-9-methyl-4-oxo-4H-pyrido[1,2-a]pyrimidin-3-yl}-3,3-dimethylbutanamide]", "EC50": 168},
      {"smiles": "Cc1cccn2c(=O)c(NC(=O)CC(C)(C)C)c(NC(C)C)nc12", "note": "[Example 3, 3,3-Dimethyl-N-[9-methyl-4-oxo-2-(propan-2-ylamino)-4H-pyrido[1,2-a]pyrimidin-3-yl]butanamide]", "EC50": 450},
      {"smiles": "CC(C)(C)CC(=O)Nc1c(C2CC2)nc2c(C(F)(F)F)cccn2c1=O", "note": "[Example 4, N-[2-Cyclopropyl-4-oxo-9-(trifluoromethyl)-4H-pyrido[1,2-a]pyrimidin-3-yl]-3,3-dimethylbutanamide]", "EC50": 137},
      {"smiles": "CC(C)(C)CC(=O)Nc1c(NC2CCC2)nc2c(C(F)(F)F)cccn2c1=O", "note": "[Example 6, N-[2-(Cyclobutylamino)-4-oxo-9-(trifluoromethyl)-4H-pyrido[1,2-a]pyrimidin-3-yl]-3,3-dimethylbutanamide]", "EC50": 91.5},
      {"smiles": "CC(C)Nc1nc2c(C(F)(F)F)cccn2c(=O)c1NC(=O)CC(C)(C)C", "note": "[Example 7, 3,3-Dimethyl-N-[4-oxo-2-(propan-2-ylamino)-9-(trifluoromethyl)-4H-pyrido[1,2-a]pyrimidin-3-yl]butanamide]", "EC50": 119},
      {"smiles": "CC(C)Nc1nc2c(OC(C)(F)F)cccn2c(=O)c1NC(=O)CC(C)(C)C", "note": "[Example 9, N-[9-(1,1-Difluoroethoxy)-4-oxo-2-(propan-2-ylamino)-4H-pyrido[1,2-a]pyrimidin-3-yl]-3,3-dimethylbutanamide]", "EC50": 369},
      {"smiles": "CC(C)(C)CC(=O)Nc1c(C2CC2)nc2c(OC(C)(F)F)cccn2c1=O", "note": "[Example 10, N-[2-Cyclopropyl-9-(1,1-difluoroethoxy)-4-oxo-4H-pyrido[1,2-a]pyrimidin-3-yl]-3,3-dimethylbutanamide]", "EC50": 306}
    ]}
  ]
}
